Reference: paper PMC10313662, “Structural insights into neurokinin 3 receptor activation by endogenous and analogue peptide agonists” (Cell Discovery, 2023)
Positions count from the first letter of the chain named. Ends that are not written are not given here.

How the values were obtained:
wild-type NK3R = biological target: T1, wild-type NK3R (Homo sapiens, UniProt P29371); experiment: IP-one accumulation assay, wild-type NK3R; assay type: cell-based
T1 construct: FLAG (DYKDDDDK); expressed in transfected cells; host or cells: HEK293T
T1 sequence (P29371 1-465): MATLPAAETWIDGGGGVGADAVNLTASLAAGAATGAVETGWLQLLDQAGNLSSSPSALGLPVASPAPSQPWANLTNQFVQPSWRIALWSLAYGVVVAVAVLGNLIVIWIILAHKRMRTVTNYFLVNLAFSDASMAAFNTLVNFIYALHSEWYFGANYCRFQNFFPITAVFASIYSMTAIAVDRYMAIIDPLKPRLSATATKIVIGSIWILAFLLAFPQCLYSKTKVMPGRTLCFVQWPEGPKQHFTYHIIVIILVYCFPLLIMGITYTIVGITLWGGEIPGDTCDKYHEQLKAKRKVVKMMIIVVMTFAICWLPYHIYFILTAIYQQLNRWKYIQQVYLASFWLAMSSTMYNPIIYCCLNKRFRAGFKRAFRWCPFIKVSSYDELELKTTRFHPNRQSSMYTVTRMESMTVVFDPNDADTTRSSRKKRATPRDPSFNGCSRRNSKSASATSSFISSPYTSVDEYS

NK1R, NK2R, NK3R = settings: ref [21]; cited from earlier work
NK3R V235A [1] = biological target: T2, NK3R V235A (human, UniProt P29371 1-465, NK3R-V235^ECL2 to alanine)
T2 sequence (looked up): T1 sequence (P29371 1-465) with V235A

NK3R V235A [2] = biological target: T2, NK3R V235A; experiment: cell-based or functional assay

Molecule: CSCC[C@H](NC(=O)[C@H](CC(C)C)NC(=O)CNC(=O)[C@@H](NC(=O)[C@H](Cc1ccccc1)NC(=O)[C@H](Cc1ccccc1)NC(=O)[C@H](CC(=O)O)NC(=O)[C@H](Cc1c[nH]cn1)NC(=O)[C@H](CCSC)NC(=O)[C@@H](N)CC(=O)O)C(C)C)C(N)=O [NKB, neurokinin B]
- Emax (wild-type NK3R): 100%

Molecule: CSCC[C@H](NC(=O)[C@H](CC(C)C)NC(=O)CNC(=O)[C@H](Cc1ccccc1)NC(=O)[C@H](Cc1ccccc1)NC(=O)[C@H](CCC(N)=O)NC(=O)[C@H](CCC(N)=O)NC(=O)[C@@H]1CCCN1C(=O)[C@H](CCCCN)NC(=O)[C@@H]1CCCN1C(=O)[C@@H](N)CCCNC(=N)N)C(N)=O [SP, substance P]
- Emax (wild-type NK3R): 100%

Molecule: neurokinin A [NKA]
- Preferential receptor activation/binding, in words (NK1R, NK2R, NK3R): preferentially bind to NK1R and NK2R, respectively

Molecule: senktide (suc-(Asp6, MePhe8) SP (6–11)) (peptide)
- IP-one accumulation, HEK293T cells; fold decrease in receptor activation against wild-type NK3R, stimulated by senktide (NK3R V235A [1]): 64 fold

Molecule: DMHDFFVGLM-NH2 (peptide, UniProt Q9UHF0 81-90, looked up) [neurokinin B]
- IP-one accumulation, HEK293T cells; fold decrease in receptor activation against wild-type NK3R, stimulated by NKB (NK3R V235A [2]): 5.2 fold

Molecule: RPKPQQFFGLM-NH2 (peptide, UniProt P20366 58-68, looked up) [substance P]
- IP-one accumulation, HEK293T cells; fold decrease in receptor activation against wild-type NK3R, stimulated by SP (NK3R V235A [2]): 30 fold
